Where “and” joins values, the source holds several entries; their conditions need not be identical. Equal values may be shown once. Toxic doses and inconclusive results are not listed. How the source made its calls: active means survival T/C of 150% or more; inactive means T/C below 125% in these data.
System: BDF1 mice, B16 melanoma ip, median survival T/C
Test: NCI In Vivo Anticancer Drug Screen. Data for tumor model B16 Melanoma (intraperitoneal) in B6D2F1 (BDF1) mice
Conditions: endpoint: median survival time, higher = longer survival
Experimental: The antitumor activity of compounds was measured in mice bearing transplantable tumors. Survival or tumor size were measured and the results are expressed as the measurement made in the treated group (T) divided by the measurement made in the vehicle treated control group (C). The tumor model used in this assay is B16 Melanoma (intraperitoneal) in B6D2F1 (BDF1) mice

[1] = dose: 12.5 mg/kg/injection, schedule: Q01DX009 (ip), vehicle: Klucel (hydroxypropylcellulose) (HPC)
[2] = dose: 25.0 mg/kg/injection, schedule: Q01DX009 (ip), vehicle: Klucel (hydroxypropylcellulose) (HPC)
[3] = dose: 50.0 mg/kg/injection, schedule: Q01DX009 (ip), vehicle: Klucel (hydroxypropylcellulose) (HPC)
[4] = dose: 100.0 mg/kg/injection, schedule: Q04DX003 (ip), vehicle: saline with Tween-80
[5] = dose: 200.0 mg/kg/injection, schedule: Q04DX003 (ip), vehicle: saline with Tween-80
[6] = dose: 6.25 mg/kg/injection, schedule: Q01DX009 (ip), vehicle: saline
[7] = dose: 12.5 mg/kg/injection, schedule: Q01DX009 (ip), vehicle: saline
[8] = dose: 1.56 mg/kg/injection, schedule: Q01DX009 (ip), vehicle: saline
[9] = dose: 50.0 mg/kg/injection, schedule: Q01DX009 (ip), vehicle: saline with Tween-80
[10] = dose: 100.0 mg/kg/injection, schedule: Q01DX009 (ip), vehicle: saline with Tween-80
[11] = dose: 25.0 mg/kg/injection, schedule: Q01DX009 (ip), vehicle: saline
[12] = dose: 50.0 mg/kg/injection, schedule: Q01DX009 (ip), vehicle: saline
[13] = dose: 100.0 mg/kg/injection, schedule: Q01DX009 (ip), vehicle: saline
[14] = dose: 6.25 mg/kg/injection, schedule: Q01DX009 (ip), vehicle: saline with Tween-80
[15] = dose: 12.5 mg/kg/injection, schedule: Q01DX009 (ip), vehicle: saline with Tween-80
[16] = dose: 25.0 mg/kg/injection, schedule: Q01DX009 (ip), vehicle: saline with Tween-80

Measured: T/C

COC(=O)C(N)Cc1ccc(O)c(O)c1 (configuration not stated)
inactive: dose: 25.0 mg/kg/injection, schedule: Q08HX018 (ip), vehicle: water 122 % of control | dose: 50.0 mg/kg/injection, schedule: Q08HX018 (ip), vehicle: water 111 % of control | dose: 50.0 mg/kg/injection, schedule: Q08HX030 (ip), vehicle: saline 99 % of control | dose: 100.0 mg/kg/injection, schedule: Q01DX012 (ip), vehicle: saline 102 % of control | dose: 100.0 mg/kg/injection, schedule: Q01DX014 (ip), vehicle: saline 102 % of control | dose: 100.0 mg/kg/injection, schedule: Q08HX018 (ip), vehicle: water 110 % of control | dose: 100.0 mg/kg/injection, schedule: Q08HX030 (ip), vehicle: saline 104 % of control | dose: 200.0 mg/kg/injection, schedule: Q01DX012 (ip), vehicle: saline 104 % of control | dose: 200.0 mg/kg/injection, schedule: Q01DX014 (ip), vehicle: saline 104 % of control | dose: 200.0 mg/kg/injection, schedule: Q08HX018 (ip), vehicle: water 113 % of control | dose: 200.0 mg/kg/injection, schedule: Q08HX030 (ip), vehicle: saline 111 % of control | dose: 400.0 mg/kg/injection, schedule: Q01DX012 (ip), vehicle: saline 120 % of control | dose: 400.0 mg/kg/injection, schedule: Q01DX014 (ip), vehicle: saline 118 % of control | dose: 400.0 mg/kg/injection, schedule: Q08HX030 (ip), vehicle: saline 107 % of control

CC(=O)[C@H]1CC[C@H]2[C@@H]3C[C@H](F)C4=CC(=O)CC[C@]4(C)[C@@]3(F)[C@@H](O)C[C@]12C
inactive: [1] 95 % of control | [2] 97 % of control | [3] 104 % of control | [4] 102 % of control | [5] 110 % of control | dose: 400.0 mg/kg/injection, schedule: Q04DX003 (ip), vehicle: saline with Tween-80 110 % of control

O=C1c2ccccc2C(=O)C(Cl)C1Cl (configuration not stated)
inactive: dose: 0.19 mg/kg/injection, schedule: Q01DX009 (ip), vehicle: saline with Tween-80 94 % of control | dose: 0.39 mg/kg/injection, schedule: Q01DX009 (ip), vehicle: saline with Tween-80 94 % of control | dose: 5.0 mg/kg/injection, schedule: Q01DX009 (ip), vehicle: saline 86 % of control

O=c1[nH]c2ccccc2c2cc3ccccc3cc12
inactive: [6] 94 % of control | [7] 86 % of control

C#CCOCC(CCl)OC(N)=O (configuration not stated)
inactive: dose: 50.0 mg/kg/injection, schedule: Q04DX003 (ip), vehicle: saline with Tween-80 111 % of control | [4] 105 % of control | [5] 108 % of control

COc1ccc(CC(C(=O)O)C(Cc2ccc(OC)c(OC)c2)C(=O)O)cc1OC (configuration not stated)
inactive: dose: 100.0 mg/kg/injection, schedule: Q01DX009 (ip), vehicle: Klucel (hydroxypropylcellulose) (HPC) 94 % of control | dose: 200.0 mg/kg/injection, schedule: Q01DX009 (ip), vehicle: Klucel (hydroxypropylcellulose) (HPC) 89 % of control

O=[N+]([O-])CC1(O)CCCCC1
inactive: [1] 102 % of control | [2] 94 % of control

COc1ccc2c(=O)c(C)c(-c3ccccc3)oc2c1CN(C)C
inactive: dose: 0.19 mg/kg/injection, schedule: Q01DX009 (ip), vehicle: saline 95 % of control | dose: 0.39 mg/kg/injection, schedule: Q01DX009 (ip), vehicle: saline 103 % of control | dose: 0.78 mg/kg/injection, schedule: Q01DX009 (ip), vehicle: saline 100 % of control | [8] 96 % of control

Cc1nc(-c2ccccc2)nc2c1CCO2
inactive: dose: 33.0 mg/kg/injection, schedule: Q01DX009 (ip), vehicle: saline with Tween-80 92 % of control | [9] 93 % of control | dose: 75.0 mg/kg/injection, schedule: Q01DX009 (ip), vehicle: saline with Tween-80 89 % of control | [10] 122 % of control

C#CCOCC(O)CCl (configuration not stated)
inactive: [11] 94 % of control | [12] 105 % of control | [10] 95 % of control | [13] 89 % of control

NC(N)=NCCCOc1ccccc1
inactive: dose: 3.12 mg/kg/injection, schedule: Q01DX009 (ip), vehicle: Klucel (hydroxypropylcellulose) (HPC) 102 % of control | dose: 6.25 mg/kg/injection, schedule: Q01DX009 (ip), vehicle: Klucel (hydroxypropylcellulose) (HPC) 108 % of control | [1] 113 % of control | [2] 100 % of control | [3] 100 % of control

CC(=N\[O-])/C(C)=N/O.CC(=N\[O-])/C(C)=N/O.CC(=O)[O-].CC(=O)[O-].O.[Rh+2].[Rh+2]
inactive: [8] 115 % of control | [11] 115 % of control

CC1(C)C(=O)NC(=O)C1(C)C
inactive: [6] 92 % of control | [7] 96 % of control | [11] 95 % of control | [12] 90 % of control

O=S(=O)(O)C1CCC[N-]C1.O=S(=O)(O)C1CCC[N-]C1.[Cl][Pt+2]([Cl])([Cl])[Cl] (configuration not stated)
inactive: [14] 110 % of control | [15] 95 % of control | [16] 103 % of control | [9] 106 % of control | [10] 105 % of control

C[n+]1c2ccccc2cc2ccccc21
inactive: dose: 1.56 mg/kg/injection, schedule: Q01DX009 (ip), vehicle: saline with Tween-80 97 % of control | [14] 90 % of control and 94 % of control

COc1cccc2c1C(=O)c1c(O)c3c(c(O)c1C2=O)CC(O)(C(C)=O)CC3OC1CC([N+](C)(C)C)C(O)C(C)O1 (configuration not stated)
inactive: dose: 1.56 mg/kg/injection, schedule: Q01DX009 (ip), vehicle: water 110 % of control | dose: 3.13 mg/kg/injection, schedule: Q01DX009 (ip), vehicle: water 107 % of control | dose: 6.25 mg/kg/injection, schedule: Q01DX009 (ip), vehicle: water 98 % of control | dose: 12.5 mg/kg/injection, schedule: Q01DX009 (ip), vehicle: water 110 % of control | dose: 25.0 mg/kg/injection, schedule: Q01DX009 (ip), vehicle: water 106 % of control

[CH3][Sn]([CH3])([CH3])[S]C(=S)N1CCOCC1
inactive: dose: 0.75 mg/kg/injection, schedule: Q01DX009 (ip), vehicle: Klucel (hydroxypropylcellulose) (HPC) 100 % of control | dose: 1.5 mg/kg/injection, schedule: Q01DX009 (ip), vehicle: Klucel (hydroxypropylcellulose) (HPC) 95 % of control

CN(C)CCSc1cc(O)c2c(c1O)C(=O)c1ccccc1C2=O
inactive: dose: 50.0 mg/kg/injection, schedule: Q01DX009 (ip), vehicle: water 94 % of control | dose: 100.0 mg/kg/injection, schedule: Q01DX009 (ip), vehicle: water 102 % of control

Oc1ccccc1/C=N/NC(=S)NC1CC2C=CC1C2 (configuration not stated)
inactive: dose: 50.0 mg/kg/injection, schedule: Q01DX009 (ip), vehicle: olive oil, sesame oil, peanut oil 88 % of control

O=S(=O)(CCBr)CCBr
inactive: [16] 93 % of control | [9] 93 % of control | [10] 98 % of control

CC1(C(=O)O)CCC2(C)CCC3(C)C(=CC(=O)C4C5(C)CCC(OC6OC(C(=O)O)C(O)C(O)C6OC6OC(C(=O)O)C(O)C(O)C6O)C(C)(C)C5CCC43C)C2C1 (configuration not stated)
inactive: [13] 106 % of control | dose: 200.0 mg/kg/injection, schedule: Q01DX009 (ip), vehicle: saline 101 % of control | dose: 400.0 mg/kg/injection, schedule: Q01DX009 (ip), vehicle: saline 102 % of control

O=CC=O
inactive: [15] 104 % of control | [16] 106 % of control | [9] 108 % of control | [10] 123 % of control

OCc1ccc[n+](CCc2c[nH]c3ccccc23)c1
inactive: [16] 102 % of control | [9] 99 % of control | [10] 102 % of control

CC(C)C(NC(=O)OC(C)(C)C)C(=O)O (configuration not stated)
inactive: [2] 123 % of control | [3] 101 % of control

Reference: PubChem BioAssay AID192 (DTP/NCI, 2004)
